Key:
[1] = tested on: hepatic 14C-cholesterogenesis; assay: Test A: hepatic 14C-cholesterogenesis, in vivo, in the rat
Text: Test A: Measurement of hepatic ^14 C-cholesterogenesis, in vivo, in the rat according to the method described by Bucher et al., J Biol. Chem., 222, 1-15, 1956 and Alberts et al., Proc. Natl. Acad. Sci. USA, 77 (7), 3957-3961, 1980.

total cholesterolaemia = assay: Test B: total cholesterolaemia, in vivo, in the rat treated intravenously with triton WR 1339; details: iv
TXA2 receptors = biological target: T1, TXA2 receptors (Cavia porcellus, UniProt A0A286Y4I8); assay: Test C: platelet aggregation induced by an agonist of TXA2 receptors (U 46619), in vitro, platelet-rich plasma; type: cell-based; details: guinea pig platelet-rich plasma, U 46619 20 nM, 37° C.
T1 construct: platelet-rich plasmas (PRP) are prepared by aortic punction of anaesthetized animals; endogenous in cells; host or cells: guinea pig platelets in platelet-rich plasma
T1 sequence (A0A286Y4I8 1-347): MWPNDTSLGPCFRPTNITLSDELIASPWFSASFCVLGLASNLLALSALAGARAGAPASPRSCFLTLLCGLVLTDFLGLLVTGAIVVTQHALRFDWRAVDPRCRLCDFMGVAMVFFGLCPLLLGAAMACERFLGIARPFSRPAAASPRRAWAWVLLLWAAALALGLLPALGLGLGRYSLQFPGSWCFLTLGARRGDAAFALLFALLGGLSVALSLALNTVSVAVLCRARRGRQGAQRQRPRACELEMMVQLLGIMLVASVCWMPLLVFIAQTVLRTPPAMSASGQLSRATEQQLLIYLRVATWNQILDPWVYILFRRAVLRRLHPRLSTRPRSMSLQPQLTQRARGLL
Method: Test C: Measurement of platelet aggregation induced by an agonist of TXA2 receptors, in the guinea pig in the following manner: platelet-rich plasmas (PRP) are prepared by aortic punction of anaesthetized animals; the blood (9 vol.) is collected onto a 106 mM solution of trisodium citrate (1 vol.) to prevent coagulation. The PRPs are isolated by slow centrifuging (10 min, 380 g), and left to incubate for at least 3 min (37° C., with slow stirring) in an aggregometer of the Chronolog-400 type. The platelet aggregation is induced by addition of a direct agonist of the TXA2 receptors, such as, for example, the compound known by the code name U 46619 (at a concentration of 20 nM) according to Malmstein, Life Sci., 18, 169-178, 1976; the compounds of the invention are tested "in vitro".

IC50 (TXA2 receptors) [µM]	Compound	ED50 [1] [mg/kg]	ED25 (total cholesterolaemia) [mg/kg]
91	CCOC(=O)C[C@H](O)C[C@H](O)/C=C/C1=C(c2ccc(F)cc2)c2ccccc2OC12CCCC2 (relative stereo) [Compound No. 1, (+,-)Ethyl 6E-erythro-7-(4-(4-fluorophenyl)-3-spiro(2,1'-cyclopentyl-2H-1-benzopyran))-3,5-dihydroxyhepten-6-oate]	0.17	29
–	COC(=O)C[C@H](O)C[C@H](O)/C=C/C1=C(c2ccccc2)c2ccccc2CC1(C)C (relative stereo) [Compound No. 2, (+,-)Methyl 6E-erythro-7-(1,2-dihydro-2,2-dimethyl-4-phenyl-3-naphthyl)-3,5-dihydroxyhept-6-enoate]	0.6	100
28	CCOC(=O)C[C@H](O)C[C@H](O)/C=C/C1=C(c2ccc(Cl)cc2)c2ccccc2OC12CCCC2 (relative stereo) [Compound No. 19, (+,-)Ethyl 6E-erythro-7-(4-(4-chlorophenyl)-3-spiro(2,1'-cyclopentyl-2H-1-benzopyran))-3,5-dihydroxyhept-6-enoate]	0.09	110
–	O=C(O)C[C@H](O)C[C@H](O)/C=C/C1=C(c2ccccc2)c2ccccc2SC12CCCC2 (relative stereo) [Compound No. 65, (+,-)Sodium 6E-erythro-3,5-dihydroxy-7-(4-phenyl-3-spiro(2,1'-cyclopentyl-2H-1-benzothiapyran))hept-6-enoate]	0.38	74
–	CC[C@H](C)C(=O)O[C@H]1C[C@@H](C)C=C2C=C[C@H](C)[C@H](CC[C@@H]3C[C@@H](O)CC(=O)O3)[C@H]21 [Lovastatine, reference compound]	0.39	130

Reference: patent publication US5183924A, “Derivatives of benzocycloalkenyldihydroxyalkanoic acids, processes of preparation and medications containing them” (Lipha, Lyonnaise Industrielle Pharmaceutique, priority 1989, dated 1993)
